Assay results from US12624020B2, “Compositions and methods for preparing and using azetidines” (University of Virginia Patent Foundation, priority 2018, dated 2026).
Entries after “also recorded” stand apart in the source; their conditions may differ. One block for each molecule: values may come before it.

Experiments:
recombinant rat DGKα [1] = target: T1, recombinant rat DGKα (Rattus norvegicus, UniProt P51556); test: ADP-Glo luminescent ADP detection assay; format: cell-based; conditions: 1 hr, HEK293T cells expressing recombinant rat DGKα
T1 construct: expressed in transfected cells; host or cells: HEK293T
Protocol: (§1) T-cells require endogenous H2S to activate and proliferate. Cystathionine β-synthase (CBS) and Cystathionine γ-lyase (CSE) are two proteins responsible for generating H2S, and previous studies have shown how knockdown of these proteins can drastically impair T-cell function. We initially tested if DGKα was affected by sulfur donors in a recombinant system. Thus, HEK293T cells expressing recombinant rat DGKα were treated with Na2S4 for 1 hr for luminescent ADP detection assay (ADP-Glo) and ABPP experiments. The activity of the rat isoform in our ADP-Glo™ assay (Promega Corporation) decreased by 40% at 10 μM 30% at 1 μM of the sulfur donor.

recombinant rat DGKα [2] = target: T1, recombinant rat DGKα; test: Competitive ABPP gel assay using TH071; format: binding; conditions: Na2S4 1 hr, TH071 as probe
Protocol: (§2) Continuing with the benzimidazole azetidine, we appended different alkyne tags via reductive amination or HATU coupling to observe the effects of N-substituents on the ring (Scheme 1 above). Soluble and membrane HEK293T cell proteomes were treated with 25 μM of azetidine compounds for one hour before addition of rhodamine via CLICK chemistry, i.e., copper catalyzed azide-alkyne cycloaddition (CuAAC). After the proteins were resolved via SDS-PAGE, we discovered a robust and unique binding profile from the azetidine probes (FIG. 2 and FIG. 3).
as §1

DGK [3] = test: Substrate assay (ADP-Glo) on second DGK isoform; format: cell-based; conditions: tested in a similar manner as DGKα
[4] = Evaluation of ring-opening under biological conditions with cysteine (LC-MS/MS); format: physicochemical; conditions: cysteine 1.5 mmol eq., 37° C., 24 hrs, PBS and DMF (5:1)
Protocol: (§3) An exemplary azetidine compound (RLM207) was dissolved in deuterated PBS with either cysteine (1.5 mmol eq.) or glutathione (1.5 mmol eq.), and incubated at 37° C. for 24 hrs in phosphate-buffered saline and DMF (5:1). To observe if any products formed between the RLM207 and biological nucleophiles, high-resolution LC-MS/MS was used to analyze the two reactions. Samples were desalted on a STAGE-Tip C^18 column and dissolved in mobile phase A (0.1% formic acid) for LC-MS/MS analysis. […] Thus, at 24.46 min, there appeared a peak with an M+1 mass of 547.2336 m/z corresponding to the covalent product.
(§4) Ring-opening reactions of azetidines typically employ harsh conditions that are not amenable to biological samples, such as strong acids and organic solvents^12-15. Our discovery was the first indication that azetidines form covalent products with a tripeptide.

[5] = Evaluation of ring-opening under biological conditions with glutathione (LC-MS/MS); format: physicochemical; conditions: glutathione 1.5 mmol eq., 37° C., 24 hrs, PBS and DMF (5:1), MS2
Protocol: as §3, §4

[6] = test system: Soluble and membrane HEK293T cell proteomes; test: Gel assay (gel ABPP): protein binding, rhodamine CuAAC, SDS-PAGE fluorescence; parameters: species or system human; conditions: 25 μM, one hour
Protocol: (§5) FIG. 2. Structure activity relationship studies of some azetidine compounds of the present disclosure and their reactivity. Cell lysates were incubated with the indicate azetidine compounds for 1 hr for gel experiments and 3 hrs for LC-MS/MS experiments. Rhodamine or desthiobiotin tags were appended to the probe for gel and mass spectrometry experiments, respectively, by copper-catalyzed azide-alkyne cycloaddition, i.e., CLICK chemistry.
as §2

HEK lysates = test: LC-MS/MS identification of azetidine-tagged proteins/peptides (desthiobiotin azide enrichment); format: binding, human
Protocol: as §5
Our initial attempts to enrich for azetidine-bound peptides were not optimal when we treated HEK lysates with only 25 μM of azetidine compound, illustrated by TH071. While we could easily observe protein bands by gel fluorescence, we were not saturating the proteome.
(§6) Next, isotopically labeled proteins were obtained through routine procedures using labeled amino acids, and the proteins were then reacted with TH071 for 3 hrs before click chemistry with desthiobiotin azide for 2 hours. Proteins were digested by trypsin into peptides before azetidine-bound peptides were enriched via affinity chromatography. Eluted peptides were analyzed by high resolution LC-MS/MS using a top 10 data-dependent acquisition (DDA). An added mass of 631.3858 Da was used to search for azetidine modifications to amino acid residues. Peptides were quantified between samples by measuring the integration of MS1 peaks between heavy and light peptides, and were sequenced by manual verification of MS2 fragmentation spectra. […] Sulfhydration modifications are a form of cysteine oxidation after the reaction with H2S to form a persulfide (S—SH).

[7] = target: recombinant mammalian DGKα (Rattus norvegicus, UniProt P51556); test: LC-MS/MS enrichment of azetidine-bound peptides on recombinant DGKα; format: binding
Protocol: as §6
Due to the lipophilic nature of azetidines, we also tested TH071 on recombinant mammalian DGKα and enriched for four peptides that were unique to this azetidine compound. Of these sites, two are located adjacent to the active site, one within the catalytic domain, and another in the zinc finger domain. […] DGKs […] the interconversion of diacylglycerol (DAG) to phosphatidic acid (PA). […]

DGK [8] = test: Gel labeling of second DGK isoform by probe; format: binding; conditions: gel assay
Protocol: as §2, §1

T1 sequence (P51556 whole entry): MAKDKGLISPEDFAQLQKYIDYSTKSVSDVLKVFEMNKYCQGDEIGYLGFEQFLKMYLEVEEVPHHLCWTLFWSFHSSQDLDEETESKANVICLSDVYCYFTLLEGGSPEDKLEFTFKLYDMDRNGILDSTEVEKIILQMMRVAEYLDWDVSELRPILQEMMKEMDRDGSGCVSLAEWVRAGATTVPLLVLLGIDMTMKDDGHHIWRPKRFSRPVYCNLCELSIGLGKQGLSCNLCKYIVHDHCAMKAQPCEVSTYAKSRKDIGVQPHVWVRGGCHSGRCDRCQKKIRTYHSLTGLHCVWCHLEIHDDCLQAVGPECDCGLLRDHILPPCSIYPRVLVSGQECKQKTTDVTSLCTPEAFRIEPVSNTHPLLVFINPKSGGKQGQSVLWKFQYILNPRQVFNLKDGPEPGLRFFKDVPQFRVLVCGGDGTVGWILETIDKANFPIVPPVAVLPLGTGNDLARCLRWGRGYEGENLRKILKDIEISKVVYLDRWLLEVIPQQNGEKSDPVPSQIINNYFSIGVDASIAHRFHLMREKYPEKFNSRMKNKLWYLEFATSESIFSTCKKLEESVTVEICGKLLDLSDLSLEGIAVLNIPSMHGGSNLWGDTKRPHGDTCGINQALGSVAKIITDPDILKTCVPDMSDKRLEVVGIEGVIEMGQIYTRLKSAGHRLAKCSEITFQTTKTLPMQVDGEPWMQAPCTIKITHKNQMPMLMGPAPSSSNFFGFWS
recombinant mammalian DGKα, sequence (P51556 whole entry): as above

decrease of DGKα activity (recombinant rat DGKα [1]; 1 μM sulfur donor): 30%
decrease of DGKα activity (recombinant rat DGKα [1]; 10 μM sulfur donor): 40%
effect of sulfur donor on TH071 labeling of DGKα (competitive ABPP) (recombinant rat DGKα [2]): these results were recapitulated
SMILES: [Na+].[Na+].[S-]SS[S-] [Na2S4]
effect on DGK activity in substrate assay (DGK [3]): showed no effect

product formation between azetidine and cysteine [4]: no change was observed
product formation between azetidine and glutathione (ring-opening) [5]: had bound to the cysteine of glutathione
SMILES: C#CCCCN1CC(c2nc3ccccc3[nH]2)C1 [RLM207]

SMILES: C#CCCCN1CC(c2ccc(F)cc2)C1 [TH069]
azetidine reactivity / protein binding (probe labeling) in gel assay [6]: most reactive

SMILES: C#CCCCN1CC(c2cccc(F)c2)C1 [TH070]
azetidine reactivity / protein binding (probe labeling) in gel assay [6]: least reactive

SMILES: C#CCCCN1CC(c2ccccc2F)C1 [TH071]
azetidine reactivity / protein binding (probe labeling) in gel assay [6]: most reactive; also recorded: could not recover probe labeling; also recorded: displayed the best reactivity
enrichment of azetidine-bound peptides (HEK lysates; 25 μM, HEK lysates): not optimal
identification of azetidine-tagged proteins by LC-MS/MS (HEK lysates; 0.5 mM TH071, 3 hrs, HEK lysates): identified multiple azetidine-tagged proteins
residue type modified by the azetidine compound (HEK lysates; MS2 site localisation, FIG. 5): binds to cysteine residues
number of enriched peptides unique to the azetidine compound [7]: four
probe labeling of DGK protein (DGK [8]): failed to label the protein

SMILES: C#CCCCN1CCC1c1cccc(F)c1 (stereo not shown) [TH073]
azetidine reactivity / protein binding (probe labeling) in gel assay [6]: could not recover probe labeling

SMILES: C#CCCCN1CCC1c1ccccc1F (stereo not shown) [TH074]
azetidine reactivity / protein binding (probe labeling) in gel assay [6]: could not recover probe labeling
